Data reported in patent US5045566A, “Novel imidate insecticides” (ICI Americas Inc., priority 1989, dated 1991).

Experiments:
Type in all cases: in vivo
[1] = tested on: Cabbage Looper [Trichoplusia ni (Hubner)]; assay: Cabbage looper leaf dip (CL), 3-5 days; settings: percent in solution, second-instar larvae
Method in brief: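 LC50 values, given as percent test compound in solution, were calculated from dosage-mortality curves. Squash cotyledons were immersed 2-3 s in acetone-water (50-50) dilutions starting at 0.1%, dried on a screen, then infested with five second-instar larvae. Mortality was read 3-5 days on.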

[2] = tested on: Tobacco Budworm [Heliothis virescens (Fabricius)] eggs; assay: Tobacco budworm eggs (TBW-E); settings: percent in solution; 2-day old eggs
Method in brief: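 2-day eggs on paper towel, acetone dip, 0.1% and below; petri dish with larval diet, 78° F. Mortality read after control hatch and larval feeding. LC50 = % compound in solution, from dose-mortality curve.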

[3] = tested on: Aster Leafhopper [Macrosteles fascifrens (Stal)]; assay: Aster leafhopper on dipped oat seedlings (LH), 48 hours; settings: percent in solution, adults/nymphs
Description: The compounds in Tables 1 and 2 above were tested for insecticidal activity using the following testing procedures. LC50 values, based on the results of these tests and calculated according to dosage-mortality curves, are expressed in Table 3.
Aster Leafhopper [Macrosteles fascifrens (Stal)]
Oat seedlings (Avena sp) were grown in a commercial potting soil in cups. When the plants were approximately 10 cm tall they were thinned to three plants per cup and dipped for 2-3 seconds in 50-50 acetone-water solutions of the test compounds. When the plants had dried, a clear plastic tube was placed over them and the bottom end pressed into the cup. Ten aster leafhopper adults/nymphs were then placed in each tube and the tops of the tubes covered with white organdy cloth. Mortality counts were made after 48 hours. Test concentrations ranged from 0.05% down to that at which 50% mortality occurred. The LC50 values are expressed below in Table 3 under the heading "LH" in terms of the percent of the test compound in the solution.

[4] = tested on: Housefly [Musca domestica]; assay: Housefly contact mortality in dishes (HF), 48 hours; settings: μg of test compound per 25 female flies
Method in brief: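 LC50, as μg compound per 25 female flies, comes from dosage-mortality curves with doses from 100 μg downward. Residues were made by evaporating acetone plus 0.01% peanut oil in dishes, onto which 1-2-day-old females were caged; deaths were counted after 48 hours.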

[5] = tested on: Black Bean Aphid [Aphis fabae (Scop.)]; assay: Black bean aphid spray test on nasturtium (BBA), 48 hours; settings: percent of test compound in sprayed solution
Method in brief: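 LC50, given as percent test compound in the sprayed liquid, was calculated from dosage-mortality curves using concentrations from 0.05% downward. Sprays in 50:50 acetone-water went to runoff on ~5 cm nasturtiums carrying 25-50 aphids of mixed ages, one day after infestation. Deaths were counted 48 h later under greenhouse conditions.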

[6] = tested on: Maize weevil [Sitophilus zeamais (Motschulsky)]; assay: Maize weevil on dipped corn seeds (MW), 48 hours; settings: percent in solution, adult weevils
Method in brief: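 LC50, given as percent of compound in dipping solution, comes from dosage-mortality curves over concentrations descending from 0.01%. Four corn seeds soaked 2-3 s in 50:50 acetone:water solution were dried and held with 10 adult weevils, about 25° C, mortality read after 48 h.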

Row | SMILES | LC50 CL [1] [%] | LC50 TBW E (eggs) [2] [%] | LC50 LH [3] [%] | LC50 HF [4] [µg] | LC50 BBA [5] [%] | LC50 MW [6] [%]
1 | CC(C)CC(=Nc1cc(Cl)cc(Cl)c1)OCc1cccc(Oc2ccccc2)c1 [Compound 10] | 0.01 | > 0.1 | > 0.05 | > 100 | 0.05 | –
2 | CC(C)C(=Nc1cc(Cl)cc(Cl)c1)OCc1cccc(Oc2ccccc2)c1 [Compound 16] | 0.004 | 0.04 | 0.0005 | 20 | 0.0004 | –
3 | CC(C)C(=Nc1cc(Cl)c(Cl)c(Cl)c1)OCc1cccc(Oc2ccccc2)c1 [Compound 20] | 0.0025 | < 0.1 | 0.003 | 64 | 0.0006 | –
4 | Fc1ccc(N=C(OCc2cccc(Oc3ccccc3)c2)C(Cl)=C(Cl)Cl)cc1 [Compound 49] | 0.007 | > 0.05 | > 0.05 | > 100 | 0.05 | –
5 | CC(C)C(=Nc1c(F)c(F)cc(F)c1F)OCc1cccc(Oc2ccccc2)c1 [Compound 57] | 0.004 | 0.1 | 0.0005 | > 100 | 0.03 | –
6 | COc1ccc(OC)c(N=C(OCc2cccc(Oc3ccccc3)c2)C(C)C)c1 [Compound 69] | 0.09 | > 0.1 | > 0.05 | > 100 | > 0.05 | –
7 | CC(C)C(=Nc1ccc(OC(F)(F)F)cc1)OCc1cccc(Oc2ccccc2)c1 [Compound 70] | < 0.1 | 0.01 | > 0.05 | < 100 | < 0.05 | –
8 | CC(C)C(=Nc1ccc(C(F)(F)F)c(Cl)c1)OCc1cccc(Oc2ccccc2)c1 [Compound 83] | 0.007 | > 0.1 | > 0.05 | > 100 | 0.05 | –
9 | CCCC(=Nc1ccc2c(c1)OCO2)OCc1cccc(Oc2ccccc2)c1 [Compound 188] | 0.002 | > 0.1 | > 0.05 | 12 | – | –
10 | CC(C)C(=Nc1cc(F)ccc1Cl)OCc1ccc(F)c(Oc2ccc(F)cc2)c1 [Compound 303] | 0.0015 | > 0.1 | 0.0005 | > 100 | – | –
11 | CC(C)C(=Nc1ccc(F)c(Cl)c1)OCc1cccc(Oc2c(F)c(F)c(F)c(F)c2F)c1 [Compound 460] | 0.02 | > 0.1 | – | > 100 | > 0.05 | > 0.01
12 | CC(C)C(=Nc1ccc2c(c1)OCO2)OCc1cccc(Oc2ccc(F)cc2)n1 [Compound 465] | 0.0017 | 0.027 | 0.0025 | 8 | – | –
13 | CC(C)C(=Nc1ccc(I)c(Cl)c1)OCc1cccc(Oc2ccc(Cl)cc2)n1 [Compound 471] | 0.00018 | 0.018 | – | < 100 | 0.001 | > 0.01
14 | COCc1c(F)c(F)c(COC(=Nc2cccc(C(F)(F)F)c2)C(C)C)c(F)c1F [Compound 503] | 0.001 | 0.08 | – | 21 | 0.006 | > 0.01
15 | CC(C)C(=Nc1ccc(C(F)(F)F)cc1)OCc1cccc(Oc2ccccc2)n1 [Compound 504] | 0.00025 | 0.05 | – | < 100 | 0.0003 | 0.01
16 | COCc1c(F)c(F)c(COC(=Nc2ccc(F)c(Cl)c2)C(C)C)c(F)c1F [Compound 505] | 0.0024 | 0.09 | – | 14 | 0.002 | > 0.01

Row | SMILES | LC50 CL [1] [%] | LC50 TBW E (eggs) [2] [%] | LC50 LH [3] [%] | LC50 HF [4] [µg] | LC50 BBA [5] [%] | LC50 MW [6] [%]
17 | CC(C)C(=Nc1cccc(C(F)(F)F)c1)OCc1cc(Oc2ccccc2)ccn1 [Compound 506] | 0.005 | > 0.1 | – | 40 | 0.03 | > 0.01
18 | CC(C)C(=Nc1cccc(C(F)(F)F)c1)OCc1ccnc(Oc2ccccc2)c1 [Compound 507] | 0.002 | > 0.1 | – | 93 | 0.05 | > 0.01
19 | CC(C)C(=Nc1cccc(C(F)(F)F)c1)OCc1cc(Oc2ccc(Cl)cc2)ccn1 [Compound 509] | 0.0075 | > 0.1 | – | 79 | > 0.05 | > 0.01
20 | CC(C)C(=Nc1ccc(F)c(Cl)c1)OCc1ccnc(Oc2ccccc2)c1 [Compound 510] | 0.017 | > 0.1 | – | 54 | 0.05 | > 0.01
21 | CC(C)C(=Nc1ccc(F)c(Cl)c1)OCc1ccnc(Oc2ccc(F)cc2)c1 [Compound 511] | 0.0012 | > 0.1 | – | 89 | 0.05 | > 0.01
22 | CC(C)C(=Nc1ccc(OC(F)(F)F)cc1)OCc1cccc(Oc2ccccc2)n1 [Compound 550] | 0.00034 | > 0.1 | – | < 100 | 0.002 | > 0.01
23 | CC(C)C(=Nc1ccc(Br)c(F)c1)OCc1cccc(Oc2ccc(Cl)cc2)n1 [Compound 551] | 0.00075 | 0.035 | – | < 100 | 0.0006 | > 0.01
24 | CCc1ccc(N=C(OCc2cccc(Oc3ccc(Cl)cc3)n2)C(C)C)cc1 [Compound 552] | 0.0016 | > 0.1 | – | > 100 | 0.002 | > 0.01
25 | CC(C)C(=Nc1ccc(Cl)cc1)OCc1cccc(Oc2ccccc2)n1 [Compound 553] | < 0.1 | 0.1 | – | < 100 | 0.05 | > 0.01
26 | CC(C)C(=Nc1ccc(Cl)cc1)OCc1cccc(Oc2ccc(Cl)cc2)n1 [Compound 554] | 0.00075 | 0.04 | – | > 100 | 0.003 | > 0.01
27 | CC(C)C(=Nc1ccc(Cl)c(C(F)(F)F)c1)OCc1cccc(Oc2ccccc2)n1 [Compound 555] | 0.002 | > 0.1 | – | < 100 | 0.0035 | > 0.01
28 | CC(C)C(=Nc1ccc2c(c1)OC(F)(F)O2)OCc1cccc(Oc2ccccc2)n1 [Compound 556] | 0.0007 | 0.04 | – | < 100 | 0.0035 | > 0.01
29 | CC(C)C(=Nc1cccc(Br)c1)OCc1cccc(Oc2ccc(Cl)cc2)n1 [Compound 557] | 0.0004 | > 0.1 | – | < 100 | 0.0015 | > 0.01
30 | CC(C)C(=Nc1ccc(F)c(Br)c1)OCc1cccc(Oc2ccccc2)n1 [Compound 558] | 0.00045 | > 0.1 | – | < 100 | 0.0012 | > 0.01
31 | CC(C)C(=Nc1ccc(F)c(F)c1)OCc1cccc(Oc2ccc(Cl)cc2)n1 [Compound 559] | 0.00027 | 0.017 | – | < 100 | 0.0035 | > 0.01
32 | C=C(C)C(=Nc1ccc(C(F)(F)F)cc1)OCc1cccc(Oc2ccc(Cl)cc2)n1 [Compound 560] | 0.0015 | < 0.1 | – | < 100 | 0.0025 | > 0.01
